Results: US20100204098A1 (priority 2007, published 2010)

Assays:
E. coli = assay type: cell-based, Escherichia coli
F. oxysporum = assay type: cell-based, Fusarium oxysporum
F. graminearum = assay type: cell-based, Fusarium graminearum
M. luteus = assay type: cell-based, Micrococcus luteus
L. maculans = assay type: cell-based, Leptosphaeria maculans
A. rabiei = assay type: cell-based, Ascochyta rabiei

Row | Substance | concentration at which activity against E. coli was shown (E. coli) [µM] | concentration level at which activity against spores of F. oxysporum was shown (F. oxysporum) [µM] | activity against F. graminearum of fractions purified from hemolymph (F. graminearum) | concentration level at which activity against spores of F. graminearum was shown (F. graminearum) [µM] | concentration at which activity against M. luteus was shown (M. luteus) [µM] | concentration level at which activity against spores of L. maculans was shown (L. maculans) [µM] | activity against spores of F. oxysporum (F. oxysporum) | activity against M. luteus (M. luteus) | activity against E. coli (E. coli) | concentration level at which activity against spores of A. rabiei was shown (A. rabiei) [µM]
1 | Gm-moricinC3: Moricin-like peptide from Galleria mellonella, SEQ ID NO:5; purified from hemolymph and synthesised by Auspep (KVPIGAIKKGGKIIKKGLGVIGAAGTAHEVYSHVKNRQ; listed as Galleria mellonella) | 100 | 100 | activity | 10 | 100 | 100 |  |  |  | 
2 | Gm-moricinC4/C5: Mature Gm-moricinC4 and Gm-moricinC5 from Galleria mellonella, identical mature amino acid sequences (SEQ ID NO:1 and 3), synthesised by Auspep (KVPVGAIKKGGKAIKTGLGVVGAAGTAHEVYSHIRNRH; listed as Galleria mellonella) | 100 |  |  | 100 |  | 100 | no activity | no activity |  | 
3 | Gm-moricinD: Moricin-like antifungal peptide from Galleria mellonella, SEQ ID NO:7; purified from hemolymph and synthesised by Auspep (KGIGSALKKGGKIIKGGLGALGAIGTGQQVYEHVQNRQ; listed as Galleria mellonella) |  | 100 | activity | 10 |  | 100 |  | no activity | no activity | 100
